Series [1] addresses T1, RARα (Homo sapiens, UniProt P10276).
T1 sequence (P10276 183-417 limits assumed): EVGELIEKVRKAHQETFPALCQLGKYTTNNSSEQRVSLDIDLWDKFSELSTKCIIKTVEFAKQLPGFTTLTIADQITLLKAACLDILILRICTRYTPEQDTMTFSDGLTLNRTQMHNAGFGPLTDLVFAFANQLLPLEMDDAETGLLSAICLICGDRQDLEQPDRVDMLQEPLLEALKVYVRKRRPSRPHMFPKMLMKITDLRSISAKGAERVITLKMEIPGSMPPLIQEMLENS
The series can be described thus: chimeric receptor transactivation assay, RARα. Type of series: cell-based. The conditions noted are these: for EC50: chimeric receptor transactivation, read-out: RAR Trans. EC50 α; for Emax: percentage compared to the standard compound, read-out: RAR Trans. efficacy (number in parentheses) α. From the text:
(§1) Specifically, one such assay is a chimeric receptor transactivation assay which tests for agonist-like activity in the R RAPE and RAR7 receptor subtypes, and which is based on work published by Feigner, P. L. and Holm, M (1989) Focus, 112 is described in detail in U.S. Pat. No. 5,455,265. The specification of U.S. Pat. No. 5,455,265 is hereby expressly incorporated by reference. A holoreceptor transactivation assay and a ligand binding assay which measure the antagonist/agonist like activity of the compounds of the invention, or their ability to bind to the several retinoid receptor subtypes, respectively, are described in published PCT Application No. WO WO93/11755 (particularly on pages 30-33 and 37-41) published on Jun. 24, 1993, the specification of which is also incorporated herein by reference. A detailed experimental procedure for holoreceptor transactivations has been described by Heyman et al. Cell 68, 397-406, (1992); Allegretto et al. J. Biol. Chem. 268, 26625-26633, and Mangelsdorf et al. The Retinoids: Biology, Chemistry and Medicine, pp 319-349, Raven Press Ltd., New York, which are expressly incorporated herein by reference. The results obtained in this assay are expressed in EC50 numbers, as they are also in the chimeric receptor transactivation assay. The results of the ligand binding assay are expressed in Ki numbers. (See Cheng et al. Biochemical Pharmacology Vol. 22 pp 3099-3108, expressly incorporated herein by reference.)
(§2) Efficacy in a transactivation assay is expressed as a percentage of the maximum potency attained by the compound compared to a standard which, in this case, is the compound named (2E,4E,1′S,2′S)-3-methyl-5-[2′-methyl-2′-(5,5,8,8-tetramethyl-5,6,7,8-tetrahydro-naphthalen-2-yl)-cyclopropyl]-penta-2,4-dienoic acid. This standard compound is described in U.S. Pat. No. 6,114,533.
(§3) The specification of this application for patent is organized in several sections in accordance with structural Formulas A through F each of which discloses a group of preferred compounds within the scope of the invention. Tables that disclose the activity of certain exemplary compounds of the invention in the above-described RXR receptor transactivation and binding assays are found in the corresponding sections. […] The transactivation data pertaining to the activation of RXR receptors were obtained in the holoreceptor assay.
(§4) Generally speaking, in the tables disclosing the results of transactivation and binding assays the numbers in parentheses indicate efficacy as a percentage compared to the standard compound, (2E,4E,1′S,2′S)-3-methyl-5-[2′-methyl-2′-(5,5,8,8-tetramethyl-5,6,7,8-tetrahydro-naphthalen-2-yl)cyclopropyl]-penta-2,4-dienoic acid and the other numbers indicate the measured EC50 and K; in nanomolar concentration.

In series [2] the target is T2, RXRγ (UniProt P28705).
T2 sequence (P28705 1-463): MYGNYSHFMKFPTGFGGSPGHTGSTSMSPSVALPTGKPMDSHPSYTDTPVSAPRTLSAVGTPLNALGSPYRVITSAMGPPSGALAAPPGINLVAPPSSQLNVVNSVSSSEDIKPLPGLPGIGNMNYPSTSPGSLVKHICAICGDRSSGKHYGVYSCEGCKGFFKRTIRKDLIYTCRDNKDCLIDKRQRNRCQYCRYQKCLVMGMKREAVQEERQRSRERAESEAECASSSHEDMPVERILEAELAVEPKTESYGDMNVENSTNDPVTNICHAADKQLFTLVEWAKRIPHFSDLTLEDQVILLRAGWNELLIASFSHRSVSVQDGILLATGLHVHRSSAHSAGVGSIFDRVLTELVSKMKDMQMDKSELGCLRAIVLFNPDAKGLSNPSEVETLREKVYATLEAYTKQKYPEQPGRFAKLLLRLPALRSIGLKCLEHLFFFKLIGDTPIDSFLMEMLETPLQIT
The series can be described thus: holoreceptor transactivation assay, RXRγ. Format: cell-based. The note with it: for EC50: holoreceptor transactivation, read-out: RXR Trans. EC50 γ; for RXR Trans. efficacy (number in parentheses) γ: percentage compared to the standard compound.
Text: as §1, §2, §3, §4

The target in series [3] is T3, RARβ (Homo sapiens, UniProt P10826).
T3 sequence (P10826 1-455): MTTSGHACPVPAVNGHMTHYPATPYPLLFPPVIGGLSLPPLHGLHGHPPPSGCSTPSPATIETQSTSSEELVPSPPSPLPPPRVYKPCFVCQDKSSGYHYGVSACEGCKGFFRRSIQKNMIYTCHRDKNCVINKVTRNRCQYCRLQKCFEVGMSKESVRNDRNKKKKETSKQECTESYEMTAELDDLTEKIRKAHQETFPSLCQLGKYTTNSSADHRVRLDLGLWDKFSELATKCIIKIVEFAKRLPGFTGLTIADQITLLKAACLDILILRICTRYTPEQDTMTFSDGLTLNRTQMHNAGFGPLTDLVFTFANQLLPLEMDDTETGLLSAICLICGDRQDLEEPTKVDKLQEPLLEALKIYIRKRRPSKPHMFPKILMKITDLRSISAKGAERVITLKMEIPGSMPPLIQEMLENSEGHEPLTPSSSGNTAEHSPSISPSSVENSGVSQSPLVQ
In words: ligand binding assay, RARβ. The conditions noted are these: for Ki: read-out: RAR Bind. Ki β; for Kd: Table 9 (Formula F), read-out: RAR β Kd.
Text: as §1, §4

Series [4] concerns ob/ob mice. The series can be described thus: serum glucose, triglycerides and T4 in diabetic mice, oral gavage in corn oil daily for seven days. Type of series: in vivo. The conditions noted are these: 50 mg/kg, corn oil vehicle (Table 7).

Data on 14 compounds can be found in patent US6887896B1, “7-[(7-Alkoxy)-chrom-3-en-6-yl]-heptatrienoic acid and 7-[(3-alkoxy)-5,6-dihydronaphthalen-2-yl]-heptatrienoic acid derivatives having serum glucose reducing activity” (Allergan, Inc., priority 2003, dated 2005).

SMILES strings stand for the structures.

What is called EC50 is the midpoint of the concentration-response curve. The term Ki denotes the dissociation constant of the complex between target and ligand, obtained from inhibition or displacement. `CC/C(=C(F)/C=C/C(C)=C/C(=O)O)c1cc2c(cc1OC)OC(C)(C)C=C2C(C)C` [Compound 130, 6-Fluoro-7-(4-isopropyl-7-methoxy-2,2-dimethyl-2H-chromen-6-yl)-3-methyl-nona-2E,4E,6E-trienoic acid]: in series [1], the EC50 stood at 218 nM and the Emax was 8%. Moreover, in series [2], the EC50 amounted to 0.6 nM and the “RXR Trans. efficacy (number in parentheses) γ” value (from here on “RXR Trans. efficacy”) turned out to be 86%. The Ki in series [3] worked out at 547 nM.
Turning to `CC/C(=C(F)/C=C/C(C)=C/C(=O)O)c1cc2c(c(Cl)c1OC)OC(C)(C)C=C2C(C)C` [Compound 171, 7-(8-Chloro-4-isopropyl-7-methoxy-2,2-dimethyl-2H-chromen-6-yl)-6-fluoro-3-methyl-nona-2E,4E,6E-trienoic acid], the EC50 in series [1] was over 1000 nM. In series [2], the EC50 worked out at 0.04 nM and the “RXR Trans. efficacy” value amounted to 95%. Also, the Ki in series [3] was determined as 381 nM.
In the same order, the values of `CC/C(=C(F)/C=C/C(C)=C/C(=O)O)c1cc2c(cc1OC)OC(C)(C)C=C2C` [Compound 129, 6-Fluoro-7-(7-methoxy-2,2,4-trimethyl-2H-chromen-6-yl)-3-methyl-nona-2E,4E,6E-trienoic acid] are over 10000 nM, 53 nM, 108% and 490 nM.
Turning to `CCOc1cc2c(cc1\C(C)=C(F)/C=C/C(C)=C/C(=O)O)C(c1ccccc1)=CC(C)(C)O2` [Compound 127, (2E,4E,6E)-7-(7-Ethoxy-2,2-dimethyl-4-phenyl-2H-chromen-6-yl)-6-fluoro-3-methyl-octa-2,4,6-trienoic acid], in series [1], the EC50 stood at 245 nM and the Emax worked out at 26%. Besides, the Ki in series [3] was determined as 1400 nM.
In the same order, the values of `CCCOc1cc2c(cc1\C(C)=C(F)/C=C/C(C)=C/C(=O)O)C(c1ccccc1)=CC(C)(C)O2` [Compound 128, (2E,4E,6E)-7-(2,2-Dimethyl-4-phenyl-7-propoxy-2H-chromen-6-yl)-6-fluoro-3-methyl-octa-2,4,6-trienoic acid] are 14 nM, 25% and 388 nM.
Consider `CCOc1cc2c(cc1\C(=C/C=C/C(C)=C/C(=O)O)CC)C(C)=CCC2(C)C` [Compound A-16, 7-(3-Ethoxy-5,5,8-trimethyl-5,6-dihydronaphthalen-2-yl)-3-methyl-nona-2E,4E,6Z-trienoic acid], for which, in series [2], the EC50 was found to be 32 nM and the “RXR Trans. efficacy” value is listed as 26%. The Ki in series [3] is 610 nM. Besides, in series [4], the “Glucose Day 3, 3 h” value came to 297 mg/dL; the “Glucose Day 6, 3 h” value was found to be 267 mg/dL; the “T4 Day 7” value stood at 4.2 µg/dL; the “Triglycerides Day 3, 3 h” value stood at 121 mg/dL. In series [4] (day 0 (pre-treatment)), the “Glucose Day 0” value was determined as 443 mg/dL and the “Triglycerides Day 0” value worked out at 160 mg/dL.
As for `CCOc1cc2c(cc1\C(C)=C/C=C/C(C)=C/C(=O)O)C(CC)=CC(C)(C)O2` [Compound 45, 7-(7-Ethoxy-4-ethyl-2,2-dimethyl-2H-chromen-6-yl)-3-methyl-octa-2E,4E,6Z-trienoic acid], in series [1], the EC50 worked out at 121 nM and the Emax turned out to be 6%. The Ki in series [3] stood at 196 nM.
As usually defined, the Kd is the equilibrium constant for the complex coming apart. As to `CCOc1c(\C(C)=C(F)/C=C/C(C)=C/C(=O)O)cc2c(c1Br)C(C)(C)CC=C2C(C)C` [Compound A-169, (2E,4E,6E)-7-(4-Bromo-3-ethoxy-8-isopropyl-5,5-dimethyl-5,6-dihydro-naphthalen-2-yl)-6-fluoro-3-methyl-octa-2.4,6-trienoic acid], in series [2], the EC50 is 0.6 nM and the “RXR Trans. efficacy” value came out at 71%. The Kd in series [3] was determined as 252 nM.
As for `CCOc1c(\C(C)=C(F)/C=C/C(C)=C/C(=O)O)cc2c(c1Cl)OC(C)(C)C=C2C(C)C` [Compound 172, 7-(8-Chloro-4-isopropyl-7-ethoxy-2,2-dimethyl-2H-chromen-6-yl)-6-fluoro-3-methyl-octa-2E,4E,6E-trienoic acid], in series [2], the EC50 was 10 nM and the “RXR Trans. efficacy” value amounted to 46%. Besides, the Ki in series [3] was 442 nM.
In the case of `COc1cc2c(cc1\C(C)=C(F)/C=C/C(C)=C/C(=O)O)C(C(C)(C)C)=CC(C)(C)O2` [Compound 122, 7-(4-tert-Butyl-7-methoxy-2,2-dimethyl-2H-chromen-6-yl)-6-fluoro-3-methyl-octa-2E,4E,6E-trienoic acid], in series [2], the EC50 was found to be 9 nM and the “RXR Trans. efficacy” value came to 52%. Besides, the Ki in series [3] turned out to be 1400 nM.
In the same order, the values of `CCOc1c(\C(CC)=C(F)/C=C/C(C)=C/C(=O)O)cc2c(c1Cl)OC(C)(C)C=C2C(C)C` [Compound 173] are 6 nM, 10% and 431 nM.
With `CCOc1cc2c(cc1\C(C)=C(F)/C=C/C(C)=C/C(=O)O)C(C(C)(C)C)=CCC2(C)C` [Compound A-82, (2E,4E,6E)-6-Fluoro-3-(4,4-dimethyl-6-ethoxy-1-tert-butyl-3,4 dihydronaphthalen-7-yl)-3-methyl-2,4,6-octa-trienoic acid], in series [2], the EC50 stood at 2 nM and the “RXR Trans. efficacy” value is recorded as 31%. Moreover, the Ki in series [3] was determined as 400 nM.
Take `CCOc1c(\C(C)=C(F)/C=C/C(C)=C/C(=O)O)cc2c(c1Cl)C(C)(C)CC=C2C(C)C` [Compound A-177, (2E,4E,6E)-7-(4-Chloro-3-ethoxy-8-isopropyl-5,5-dimethyl-5,6-dihydronaphthalen-2-yl)6-fluoro-3-methyl-octa-2,4,6-trienoic acid]: in series [2], the half-maximal effective concentration (EC50) came to 0.2 nM and the “RXR Trans. efficacy” value was determined as 73%. The Kd in series [3] came out at 443 nM.
For the compound `CCC1=CC(C)(C)Oc2cc(OC)c(\C(C)=C/C=C/C(C)=C/C(=O)O)cc21` [Compound 42, 7-(4-Ethyl-7-methoxy-2,2-dimethyl-2H-chromen-6-yl)-3-methyl-octa-2E,4E,6Z-trienoic acid], in series [2], the EC50 is 13 nM and the “RXR Trans. efficacy” value was 125%. In addition, in series [3], the Ki is 9900 nM.
